Patent publication US11286236B2, “Compound, agent and composition for the suppression of cancer growth” (Vector Vitale IP LLC, priority 2018, dated 2022)
Counter-ions that a name gives are not always drawn.

How the values were obtained:
[1] = tested on: human Keratinocytes (HaCaT line); assay: Metabolic activity of human keratinocytes (HaCaT line); type: cell-based
Experimental: In Vitro Effects of Experimental Compound ^85Rbe-E2 on metabolic activity of human Keratinocytes
(§1) Proliferative and metabolic activity of cells was determined by the colorimetric method.
(§2) The metabolic activity of the cells (i.e., the number of living cells) was assessed by MTT staining.
(§3) 24 hours after the last reagent, the cells were seeded at a concentration of 1×10^4 cells/well in wells of a 96-well plate in complete DMEM nutrient medium with 10% FBS and 40 μg/ml gentamicin. The cells were cultured in a humidified atmosphere at 5% CO2 and 37° C. for 24 hours. After 24 hours, various doses of experimental substances were added to the respective wells. The cells were incubated at 37° C. and 5% CO2 for an additional 72 hours.
(§4) Upon completion of the incubation with the preparations, the proliferative and metabolic activity of the cells in the experiment was evaluated by the colorimetric method by staining MTT cells:
(§5) 10 μl of the MTT solution (5 mg/ml of the dye in phosphate-buffered saline) was added to each well of the plate; the plate was incubated in a CO2 incubator at 37° C. for 3 hours. After that, the medium was removed from the wells, and the formed tetraformazan crystals were dissolved in 100 μl of dimethylsulfoxide.
(§6) When MTT was used, the results were evaluated using a multi-well spectrophotometer at an excitation wavelength of 540 nm. The percentage of viable cells was calculated by the formula: IR=(A540(experiment)/A540(control))×100%.

Normal Human Fibroblasts = assay: Metabolic activity of normal human fibroblasts (MTT assay); type: cell-based
Experimental: In Vitro Assessment of the Effects of Experimental Compound ^85Rbe-E2 on metabolic Activity of Normal Human Fibroblasts (MTT Assay)
In Vitro Assessment of the Effects of E2+^85Rbe on Metabolic Activity of Normal Human Fibroblasts (MTT Assay)
as §1, §2, §3, §4, §5, §6

## Cc1ccc(S(=O)(=O)Nc2ccccc2NC(=O)c2ccccc2)cc1 [^85Rbe − E2, ^85Rb-enriched rubidium salt of N-benzoyl-N′-(4-toluenesulfonyl)-o-phenylenediamine]
[1]; 8 ng/ml
  Metabolic activity of cells, %: 114 ± 7.7%
[1]; 16 ng/ml
  Metabolic activity of cells, %: 98 ± 4%
[1]; 31 ng/ml
  Metabolic activity of cells, %: 97.8 ± 3.6%
[1]; 62 ng/ml
  Metabolic activity of cells, %: 90.7 ± 2.7%
[1]; 0.13 μg/ml
  Metabolic activity of cells, %: 95.3 ± 10.7%
[1]; 0.25 μg/ml
  Metabolic activity of cells, %: 100 ± 8.7%
[1]; 0.5 μg/ml
  Metabolic activity of cells, %: 90 ± 1%
[1]; 1 μg/ml
  Metabolic activity of cells, %: 0%
Normal Human Fibroblasts; 1.25 μg/ml
  Metabolic activity of cells, %: 105.1 ± 2.3%
Normal Human Fibroblasts; 2.5 μg/ml
  Metabolic activity of cells, %: 84.4 ± 4.6%
Normal Human Fibroblasts; 5 μg/ml
  Metabolic activity of cells, %: 82.3 ± 3^ %
Normal Human Fibroblasts; 10 μg/ml
  Metabolic activity of cells, %: 82.5 ± 1.3%
Normal Human Fibroblasts; 20 μg/ml
  Metabolic activity of cells, %: 74 ± 1.3%
Normal Human Fibroblasts; 38 μg/ml
  Metabolic activity of cells, %: 68.5 ± 1.8%
Normal Human Fibroblasts; 75 μg/ml
  Metabolic activity of cells, %: 67.4 ± 4.7%
Normal Human Fibroblasts; 150 μg/ml
  Metabolic activity of cells, %: 72.8 ± 2.1%
